Data reported in article PMC6934184, “Selective DNA-PKcs inhibition extends the therapeutic index of localized radiotherapy and chemotherapy” (The Journal of Clinical Investigation, 2019).
Several values for one entry are separate records, joined by “and”; a condition that tells them apart may be missing. Identical values can stand only once.

Assays:
SJSA-1 tumor xenografts = test: subcutaneous SJSA-1 xenograft with parenteral etoposide; assay type: in vivo, CD-1 nude mice; conditions: etoposide 5 mg/kg i.p., 5 consecutive days
Protocol: Combining systemic administration of etoposide + NU5455 in vivo
SJSA1 cells (1 x 10^7 cells/mouse in 50 µl, 50% v/v Matrigel) were implanted s.c. into the right flank of female CD-1 nude mice. When tumor volumes reached 103-121 mm3 mice were treated daily, for five consecutive days, with NU5455 (30 mg/kg or 100 mg/kg once -daily p.o. in NMP:Encapsin (30% aq):PEG4000 (1:6:3 v/v/v) ) or vehicle, followed immediately with etoposide (5 mg/kg i.p. in saline). Body weight and tumor volume measurements were taken daily during treatment and three times per week post -treatment. Tumor volume was calculated from two-dimensional electronic caliper measurements (Mitutoyo) using the equation ‘width2 x length/2’, where width was the smaller side, and length the longer dimension of the tumor. Mice were humanely killed when; (i) an adverse effect on clinical condition was evident, (ii) tumor bilateral measurements reached 10 mm x 10 mm, (iii) a tumor measurement in any di mension reached 15 mm, or (iv) at study termination. […]

[1] = test system: NHEJ-mediated DSB repair in HEK293T cells; test: NHEJ plasmid repair assay; assay type: cell-based, Human; conditions: 10 µM; 24 hours; AfeI or ScaI linearized plasmid
Protocol: The ability of NU5455 to impair the nonhomologous end joining (NHEJ) ability of cells was assessed using a modified version of a DNA repair assay developed by Nagel et al. ([52]), which measures the repair of a plasmid encoding blue fluorescent protein (BFP) and GFP linearized by either an ScaI or an AfeI restriction digestion. Full experimental details are given in Supplemental Methods.
(§1) Membranes were then washed in TBST and incubated with HRP-conjugated goat anti-mouse or anti-rabbit antibodies (P0447 and P0448 respectively, Dako) in 5% (w/v) milk/TBST at room temperature for 1-2 hours. Conjugates were detected using Clarity Western ECL Substrate (BioRad) and chemiluminescence imaged using the Fuji LAS-3000 Luminescent Image Analyzer System (Fujifilm).
Densitometry analysis was performed using AIDA Image Analyzer software (Raytest). The intensity of all bands was determined following a background subtraction, and the level of pDNA-PKcs stimulation determined by subtracting basal unstimulated pDNA-PKcs Ser2056 levels. pDNA-PKcs Ser2056 band intensity was calculated relative to total DNA-PKcs band intensity, and is given as percentage expression relative to irradiated, DMSO-treated cells. […]
violet laser with 440/50 emission filter to detect blue fluorescence using the VL1 channel. […]
Data were analyzed by FCS Express 6 Flow Research Edition (De Novo Software). […]

MCF7 cells = test: clonogenic survival with 2 Gy IR, DNA repair inhibitors; assay type: cell-based, Human; conditions: 1 h before and 24 h after IR
Protocol: Cells were washed in phosphate-buffered saline (PBS), trypsinized and counted. Cells were then reseeded at a known density in drug-free medium into 10 cm dishes (100 - 10 000 cells/dish) and incubated for 8-21 days. Colonies were fixed using Carnoys fixture (75% v/v methanol, 25% v/v acetic acid, Fisher), stained with crystal violet (0.4% w/v in water), and counted using a ColCount automated colony counter (Oxford Optronics). Cell survival was calculated as a percentage of the untreated control.
Alternatively, exponentially growing MCF7 cells were exposed to a range of concentrations of the PARP inhibitor rucaparib, the ATM inhibitor KU55933, the ATR inhibitor VE-821 or NU5455 for 1 hour prior to irradiation with 2 Gy. Cells were then incubated in the continued presence of the DNA repair inhibitors for a further 24 hours prior to replating. […]

DNA-PK = DNA-PK (Homo sapiens, UniProt P78527); test: radiation-induced phospho-DNA-PK Ser2056 in MCF7 cells, Western blot; assay type: cell-based; set-up: endogenous in cells; host or cells: MCF7; conditions: 1 h pretreatment, 30 min after 10 Gy IR, read-out: IC50, radiation-induced activation of DNA-PK (phospho–DNA-PK Ser2056)
Protocol: (§2) Exponentially growing MCF7 cells were exposed to a range of concentrations of NU5455 and NU7441 (0.03–10 μM) for 1 hour. To assess the ability of NU5455 and NU7441 to inhibit autophosphorylation of DNA-PKcs at Ser2056, cells were treated with 10 Gy irradiation and incubated for 30 minutes. Alternatively, to investigate the effects of NU5455 and NU7441 against PI3K-dependent phosphorylation of AKT at Ser473, cells were treated with 50 ng/mL insulin-like growth factor-1 (IGF-1; Invitrogen) for 30 minutes. Cell lysates were prepared for the detection of p–DNA-PKcs Ser2056 and total DNA-PKcs, or p–AKT Ser473 and total AKT, respectively, using Western blotting. […]
(§3) Protein lysates were quantified using the Pierce BCA Protein Assay (ThermoFisher). […]
as §1, with “(Fujifilm). […]” for “(Fujifilm).”
(§4) Alternatively, basal pAKT Ser473 levels were subtracted from all other pAKT bands, and pAKT band intensity calculated relative to total AKT expression and given as a percentage relative to IGF-1 stimulated, DMSO-treated cells. […]

PI3K = test: IGF-1-stimulated phospho-AKT Ser473 in MCF7 cells, Western blot; assay type: cell-based, Human; conditions: 1 μM, 50 ng/mL IGF-1, 30 min
Protocol: as §2, §3
as §1, with “(Fujifilm). […]” for “(Fujifilm).”
as §4

MCF7 = test: growth inhibition, 72 hour incubation; assay type: cell-based, Human; conditions: read-out: Nutlin-3a GI50, mean with standard deviation
Protocol: MCF7 Human WT 2.3 ± 0.20 COSMIC […]
(§5) Supplemental Table 3. TP53 status of cell lines used.
(§6) incubation with the compound (see Supplemental Methods). GI50 values shown represent either individual determinations or the
(§7) References: (1) Melnikova VO et al., Oncogene, […]

HepG2 = test: growth inhibition, 72 hour incubation; assay type: cell-based, Human; conditions: read-out: Nutlin-3a GI50, mean with standard deviation
Protocol: HepG2 Human WT 1.0 ± 0.18 COSMIC […]
as §5, §6, §7

SJSA-1 = test: growth inhibition, 72 hour incubation; assay type: cell-based, Human; conditions: read-out: Nutlin-3a GI50, mean with standard deviation
Protocol: SJSA-1 Human WT 1.9 ± 0.19 COSMIC […]
as §5, §6, §7

M2-10B4 = test: growth inhibition, 72 hour incubation; assay type: cell-based, Mouse; conditions: read-out: Nutlin-3a GI50, mean with standard deviation
Protocol: as §5, §6, §7

4T1 = test: growth inhibition, 72 hour incubation; assay type: cell-based, Mouse; conditions: read-out: Nutlin-3a GI50, individual determinations
Protocol: as §5, §6, §7

B16F10 = test: growth inhibition, 72 hour incubation; assay type: cell-based, Mouse; conditions: read-out: Nutlin-3a GI50, mean with standard deviation
Protocol: as §5, §6, §7

NIH3T3 = test: growth inhibition, 72 hour incubation; assay type: cell-based, Mouse; conditions: read-out: Nutlin-3a GI50, mean with standard deviation
Protocol: as §5, §6, §7

NHDF = test: growth inhibition, 72 hour incubation; assay type: cell-based, Human; conditions: read-out: Nutlin-3a GI50, individual determination
Protocol: as §5, §6, §7

MCF10a = test: growth inhibition, 72 hour incubation; assay type: cell-based, Human; conditions: read-out: Nutlin-3a GI50, mean with standard deviation
Protocol: as §5, §6, §7

Huh7 = test: growth inhibition, 72 hour incubation; assay type: cell-based, Human; conditions: read-out: Nutlin-3a GI50, individual determinations
Protocol: as §5, §6, §7

A549 = test: growth inhibition, 72 hour incubation; assay type: cell-based, Human; conditions: read-out: Nutlin-3a GI50, individual determinations
Protocol: as §5, §6, §7

HCT116 = test: growth inhibition, 72 hour incubation; assay type: cell-based, Human; conditions: read-out: Nutlin-3a GI50, mean with standard deviation
Protocol: as §5, §6, §7

Hep3B = test: growth inhibition, 72 hour incubation; assay type: cell-based, Human; conditions: read-out: Nutlin-3a GI50, individual determinations
Protocol: as §5, §6, §7

SN40R2 = test: growth inhibition, 72 hour incubation; assay type: cell-based, Human; conditions: read-out: Nutlin-3a GI50, individual determination
Protocol: as §5, §6, §7

Calu6 = test: growth inhibition, 72 hour incubation; assay type: cell-based, Human; conditions: read-out: Nutlin-3a GI50, individual determinations
Protocol: as §5, §6, §7

For `COc1cc([C@@H]2c3cc4c(cc3[C@@H](O[C@@H]3O[C@@H]5CO[C@@H](C)O[C@H]5[C@H](O)[C@H]3O)[C@H]3COC(=O)[C@H]23)OCO4)cc(OC)c1O` [Etoposide, etoposide, reference compound], the “antitumor effect, monotherapy” value (SJSA-1 tumor xenografts) was “relatively marginal antitumor effect”.

For `O=c1cc(-c2cccc3c2Sc2ccccc2S3)oc(N2CCOCC2)c1` [KU55933, reference compound], the “repair of DNA-DSBs (NHEJ plasmid repair)” value [1] was “NU5455 but not the ATM inhibitor KU55933 inhibits NHEJ-mediated DSB repair” and the “SER (sensitization enhancement ratio), enhancement of 2 Gy IR clonogenic cell killing” value (“SER (sensitization enhancement ratio)” below) (MCF7 cells; at 10 μM) was 2.3 fold.

`O=c1cc(N2CCOCC2)oc2c(-c3cccc4c3sc3ccccc34)cccc12` [NU7441, reference compound] was tested, and the IC50 (DNA-PK) was 405 nM and the “inhibition of IGF/PI3K-stimulated signaling response (phospho–AKT Ser473)” value (PI3K) was 40% ± 7%.

`COc1ccc(C2=N[C@@H](c3ccc(Cl)cc3)[C@@H](c3ccc(Cl)cc3)N2C(=O)N2CCNC(=O)C2)c(OC(C)C)c1` [Nutlin-3a] gave a GI50 (MCF7) of 2300 ± 200 nM, a GI50 (HepG2) of 1000 ± 180 nM and a GI50 (SJSA-1) of 1900 ± 190 nM. The GI50 (M2-10B4) was 3.3 ± 0.64 µM, the GI50 (4T1) was > 30 µM and the GI50 (B16F10) was 5.7 ± 1.8 µM. The GI50 (NIH3T3) was 4 ± 1.1 µM, the GI50 (NHDF) was 2700 nM and the GI50 (MCF10a) was 5.1 ± 2.8 µM. The GI50 (Huh7) was > 10 µM and 27 µM, the GI50 (A549) was 2400 nM and 2900 nM and the GI50 (HCT116) was 2100 ± 710 nM. For the same compound, the GI50 (Hep3B) was > 30 µM, the GI50 (SN40R2) was > 30 µM and the GI50 (Calu6) was > 30 µM.

In the case of `CS(=O)(=O)c1ccc(-c2cnc(N)c(C(=O)Nc3ccccc3)n2)cc1` [VE-821], the “SER (sensitization enhancement ratio)” value (MCF7 cells; at 1 μM) is reported as 1.6 fold.

In the case of `CNCc1ccc(-c2[nH]c3cc(F)cc4c3c2CCNC4=O)cc1` [rucaparib], the “SER (sensitization enhancement ratio)” value (MCF7 cells; at 1 μM) is reported as 1.4 fold.
